The values that follow come from US7803801B2, “Aminopyridine compounds having Syk inhibitory activity” (Japan Tobacco, Inc., priority 2005, dated 2010).

Counter-ions that a name gives are not always drawn. Bounds are passed on as bounds.

In general, IC50 refers to the concentration needed to halve the response being measured.

Test [1] concerns the target GST-Syk Full Protein (human) (Homo sapiens, UniProt P43405). The experiment in a line: Syk kinase inhibition test (HTRF method). Particulars: Tables 1-x, compounds A; read-out: sykHTRF ave IC50. The class given is biochemical. A digest of the protocol: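 Human GST-Syk full-length (6.4 nM) phosphorylated biotin-EDPDYEWPSA-NH2 (250 nM) with 100 μM ATP in HEPES pH 7.0/MgCl2 buffer, 2% DMSO, 30 min at room temperature. EDTA stop, then HTRF detection (streptavidin-XL665, Eu anti-phosphotyrosine) after 1 h; 665/620 ratio read.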
For orientation: TR-FRET usually uses a lanthanide donor and a delayed reading to cut background.

Test [2] deals with cultured human mast cells. In words: Degranulation inhibition test using cultured human mast cells (IgE cross-linking, β-Hexosaminidase release). It counts as cell-based. The following applies: Mast cell; Tables 1-x, compounds A; cultured human mast cells; read-out: human degranulation ave. IC50. A digest of the protocol:
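CD34+ cord-blood cells cultured ≥8 weeks with SCF/IL-6/IL-3; FcεRI primed 5 days with rhIL-4 (1 ng/mL) and hIgE (0.5 μg/mL). Compound (0.1% DMSO) preincubated 10 min at 37 °C, then anti-IgE (final 10 μg/mL) 30 min; released β-hexosaminidase read at 405 nm versus total lysate, IC50 (M).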

As to `CC1(c2ccnc(Nc3cccc(-c4cnc(N5CCC(CC(=O)O)CC5)s4)n3)c2)OCCO1` [Compound A-572, [1-(5-{6-[4-(2-methyl-[1,3]dioxolan-2-yl)pyridin-2-ylamino]pyridin-2-yl}thiazol-2-yl)piperidin-4-yl]acetic acid dihydrochloride], the IC50 is under 100 nM in test [1] and 100 to 1000 nM in test [2].
For the compound `O=C(O)CC1CCN(c2ncc(-c3cccc(Nc4ccccn4)n3)s2)CC1` [Compound A-573, (1-{5-[6-(pyridin-2-ylamino)pyridin-2-yl]thiazol-2-yl}piperidin-4-yl)acetic acid dihydrochloride], the results for the half-inhibitory concentration (IC50) in test [1] and in test [2] were under 100 nM and over 1000 nM, respectively.
Regarding `Cc1ccnc(Nc2cccc(-c3cnc(N(C)Cc4ccc(C(=O)O)cc4)s3)n2)c1` [Compound A-574, 4-[(N-methyl-N-{5-[6-(4-methylpyridin-2-ylamino)pyridin-2-yl]thiazol-2-yl}amino)methyl]benzoic acid dihydrochloride], the IC50 in test [1] is under 100 nM; in test [2], 100 to 1000 nM.
On the same counts, the results for `Cc1ccnc(Nc2cccc(-c3cnc(N4CC[C@@H](OCC(=O)O)C4)s3)n2)c1` [Compound A-575, ((R)-1-{5-[6-(4-methylpyridin-2-ylamino)pyridin-2-yl]thiazol-2-yl}pyrrolidin-3-yloxy)acetic acid dihydrochloride] are under 100 nM and over 1000 nM.
As to `Cc1ccnc(Nc2cccc(-c3cnc(N4CCC(C(=O)O)C4)s3)n2)c1` (centres unmarked) [Compound A-576, 1-{5-[6-(4-methylpyridin-2-ylamino)pyridin-2-yl]thiazol-2-yl}pyrrolidine-3-carboxylic acid dihydrochloride], the results for the concentration for half-maximal inhibition (IC50) in test [1] and in test [2] were under 100 nM and over 1000 nM, respectively.
On the same counts, the results for `OCCc1ccnc(Nc2cccc(-c3cnc(N4CC[C@@H](O)C4)s3)n2)c1` [Compound A-577, (R)-1-(5-{6-[4-(2-hydroxyethyl)pyridin-2-ylamino]pyridin-2-yl}thiazol-2-yl)pyrrolidin-3-ol dihydrochloride] are under 100 nM and 100 to 1000 nM.
With `Cc1ccnc(Nc2cccc(-c3cnc(N(C)[C@H]4CN[C@H](C(=O)O)C4)s3)n2)c1` [Compound A-579, (2S,4R)-4-(N-methyl-N-{5-[6-(4-methylpyridin-2-ylamino)pyridin-2-yl]thiazol-2-yl}amino)pyrrolidine-2-carboxylic acid], the IC50 in test [1] is under 100 nM; in test [2], over 1000 nM.
Turning to `Cc1ccnc(Nc2cccc(-c3cnc(N(C)CC(=O)N(C)CC(=O)O)s3)n2)c1` [Compound A-580, {N-methyl-N-[2-(N′-methyl-N′-{5-[6-(4-methylpyridin-2-ylamino)pyridin-2-yl]thiazol-2-yl}amino)acetyl]amino}acetic acid dihydrochloride], the values for the IC50 in test [1] and in test [2] were under 100 nM and over 1000 nM, respectively.
For `Cc1ccnc(Nc2cccc(-c3cnc(N4CCc5c(cccc5C(=O)O)C4)s3)n2)c1` [Compound A-582, 2-{5-[6-(4-methylpyridin-2-ylamino)pyridin-2-yl]thiazol-2-yl}-1,2,3,4-tetrahydroisoquinoline-5-carboxylic acid], the values for the IC50 in test [1] and in test [2] were under 100 nM and over 1000 nM, respectively.
On the same counts, the results for `Cc1ccnc(Nc2cccc(-c3cnc(N(C)Cc4cccc(C(=O)O)c4)s3)n2)c1` [Compound A-586, 3-[(N-methyl-N-{5-[6-(4-methylpyridin-2-ylamino)pyridin-2-yl]thiazol-2-yl}amino)methyl]benzoic acid dihydrochloride] are under 100 nM and over 1000 nM.
`Cc1ccnc(Nc2cccc(-c3cnc(N(C)Cc4ccc(CC(=O)O)cc4)s3)n2)c1` [Compound A-587, {4-[(N-methyl-N-{5-[6-(4-methylpyridin-2-ylamino)pyridin-2-yl]thiazol-2-yl}amino)methyl]phenyl}acetic acid dihydrochloride]: the IC50 in test [1] was under 100 nM; in test [2], 100 to 1000 nM.
On the same counts, the results for `Cc1ccnc(Nc2cccc(-c3cnc(N4CCC(CC(=O)O)C4)s3)n2)c1` (centres unmarked) [Compound A-588, (1-{5-[6-(4-methylpyridin-2-ylamino)pyridin-2-yl]thiazol-2-yl}pyrrolidin-3-yl)acetic acid] are under 100 nM and over 1000 nM.
Take `Cc1ccnc(Nc2cccc(-c3cnc(N4CCN(CC(=O)O)CC4)s3)n2)c1` [Compound A-589, (4-{5-[6-(4-methylpyridin-2-ylamino)pyridin-2-yl]thiazol-2-yl}piperazin-1-yl)acetic acid dihydrochloride]: the IC50 is under 100 nM in test [1] and over 1000 nM in test [2].
On the same counts, the results for `Cc1ccnc(Nc2cccc(-c3cnc(N(C)[C@H]4CC[C@@H](C(=O)O)CC4)s3)n2)c1` [Compound A-591, cis-4-(N-methyl-N-{5-[6-(4-methylpyridin-2-ylamino)pyridin-2-yl]thiazol-2-yl}amino)cyclohexanecarboxylic acid] are under 100 nM and 100 to 1000 nM.
With `Cc1ccnc(Nc2cccc(-c3cnc(N(C)[C@H]4CC[C@H](C(=O)O)CC4)s3)n2)c1` [Compound A-592, trans-4-(N-methyl-N-{5-[6-(4-methylpyridin-2-ylamino)pyridin-2-yl]thiazol-2-yl}amino)cyclohexanecarboxylic acid], the IC50 is under 100 nM in test [1] and 100 to 1000 nM in test [2].
Taken in the same sequence, the figures for `Cc1ccnc(Nc2cccc(-c3cnc(N(C)CCc4ccc(C(=O)O)cc4)s3)n2)c1` [Compound A-593, 4-[2-(N-methyl-N-{5-[6-(4-methylpyridin-2-ylamino)pyridin-2-yl]thiazol-2-yl}amino)ethyl]benzoic acid dihydrochloride] were under 100 nM and 100 to 1000 nM.
For `Cc1ccnc(Nc2cccc(-c3cnc(N4CCC(OCC(=O)O)CC4)s3)n2)c1` [Compound A-594, (1-{5-[6-(4-methylpyridin-2-ylamino)pyridin-2-yl]thiazol-2-yl}piperidin-4-yloxy)acetic acid dihydrochloride], the IC50 was under 100 nM in test [1] and over 1000 nM in test [2].
`Cc1ccnc(Nc2cccc(-c3cnc(C4CCC(CC(=O)O)CC4)s3)n2)c1` (centres unmarked) [Compound A-595, (4-{5-[6-(4-methylpyridin-2-ylamino)pyridin-2-yl]thiazol-2-yl}cyclohexyl)acetic acid hydrochloride]: the IC50 in test [1] was under 100 nM; in test [2], 100 to 1000 nM.
For `CN(Cc1ccc(C(=O)O)cc1)c1ncc(-c2cccc(Nc3cc(C4(C)OCCO4)ccn3)n2)s1` [Compound A-596, 4-{[N-methyl-N-(5-{6-[4-(2-methyl-[1,3]dioxolan-2-yl)pyridin-2-ylamino]pyridin-2-yl}thiazol-2-yl)amino]methyl}benzoic acid], the IC50 is under 100 nM in test [1] and 100 to 1000 nM in test [2].
Regarding `Cc1ccnc(Nc2cccc(-c3cnc(N(CC(=O)N(C)C)Cc4ccc(C(=O)O)cc4)s3)n2)c1` [Compound A-597, 4-[(N-dimethylcarbamoylmethyl-N-{5-[6-(4-methylpyridin-2-ylamino)pyridin-2-yl]thiazol-2-yl}amino)methyl]benzoic acid dihydrochloride], the IC50 in test [1] is under 100 nM; in test [2], over 1000 nM.
As for `Cc1ccnc(Nc2cccc(-c3cnc(N(CC(N)=O)[C@H]4CC[C@@H](C(=O)O)CC4)s3)n2)c1` [Compound A-598, cis-4-(N-carbamoylmethyl-N-{5-[6-(4-methylpyridin-2-ylamino)pyridin-2-yl]thiazol-2-yl}amino)cyclohexanecarboxylic acid], the IC50 in test [1] was under 100 nM; in test [2] it was over 1000 nM.
In the case of `Cc1ccnc(Nc2cccc(-c3cnc(N(CC(N)=O)C[C@H]4CC[C@H](C(=O)O)CC4)s3)n2)c1` [Compound A-599, trans-4-[(N-carbamoylmethyl-N-{5-[6-(4-methylpyridin-2-ylamino)pyridin-2-yl]thiazol-2-yl}amino)methyl]cyclohexanecarboxylic acid], the IC50 in test [1] is under 100 nM; in test [2], over 1000 nM.
On the same counts, the results for `Cc1ccnc(Nc2cccc(-c3cnc(N(CC(N)=O)[C@H]4CC[C@H](C(=O)O)CC4)s3)n2)c1` [Compound A-600] are 100 to 1000 nM and over 1000 nM.
With `Cc1ccnc(Nc2cccc(-c3cnc(N(CC(=O)N(C)C)C[C@H]4CC[C@H](C(=O)O)CC4)s3)n2)c1` [Compound A-601], the figures for the IC50 in test [1] and in test [2] were 100 to 1000 nM and over 1000 nM, respectively.
In the case of `Cc1ccnc(Nc2cccc(-c3cnc(N(CC(=O)N(C)C)[C@H]4CC[C@H](C(=O)O)CC4)s3)n2)c1` [Compound A-602], the half-maximal inhibitory concentration (IC50) in test [1] was 100 to 1000 nM; in test [2], over 1000 nM.
Turning to `Cc1ccnc(Nc2cccc(-c3cnc(N(C)Cc4ccc(C(=O)O)s4)s3)n2)c1` [Compound A-603, 5-[(N-methyl-N-{5-[6-(4-methylpyridin-2-ylamino)pyridin-2-yl]thiazol-2-yl}amino)methyl]thiophene-2-carboxylic acid], the IC50 was under 100 nM in test [1] and over 1000 nM in test [2].
On to `Cc1ccnc(Nc2cccc(-c3cnc(N(C)Cc4ccc(C(=O)O)cc4Cl)s3)n2)c1` [Compound A-604, 3-chloro-4-[(N-methyl-N-{5-[6-(4-methylpyridin-2-ylamino)pyridin-2-yl]thiazol-2-yl}amino)methyl]benzoic acid dihydrochloride], for which the results for the IC50 in test [1] and in test [2] were under 100 nM and 100 to 1000 nM, respectively.
With `Cc1ccnc(Nc2cccc(-c3cnc(COc4ccc(C(=O)O)cc4)s3)n2)c1` [Compound A-605, 4-{5-[6-(4-methylpyridin-2-ylamino)pyridin-2-yl]thiazol-2-ylmethoxy}benzoic acid], the IC50 was under 100 nM in test [1] and over 1000 nM in test [2].
